Test results: ChEMBL document CHEMBL1201862, “PubChem BioAssay data set” (2004)
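Briefly, cells in 96-well plates were exposed to five compound concentrations for 48 h, and endpoints were estimated by linear interpolation. GI50 is the concentration that inhibits growth by half.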 Active and inactive are the calls of the source. Rule as the data show it: active = GI50 up to about 1.1 µM and inactive = higher.

Assays:
Experiment in all cases: growth of human tumour cells (NCI), 48 h
[1] = system: HCC 2998
[2] = system: HL-60
[3] = system: HOP-92
[4] = system: HT-29
[5] = system: Hs-578T
[6] = system: MCF7
[7] = system: MDA-MB-435
[8] = system: NCI/ADR-RES
[9] = system: OVCAR-3
[10] = system: OVCAR-8
[11] = system: SF-268
[12] = system: SF-295
[13] = system: SF-539
[14] = system: SK-MEL-5
[15] = system: SK-OV-3
[16] = system: SNB-75
[17] = system: SR
[18] = system: SW-620
[19] = system: T47D
[20] = system: U-251

Measured: GI50

C=C1C[C@@H](O)[C@@H](Br)C(C)(C)[C@@]12C=CC(=O)CC2
inactive: [1] > 78.7 µM | [2] > 100 µM | [3] > 100 µM | [4] > 100 µM | [5] > 100 µM | [6] > 100 µM | [7] > 100 µM | [8] > 100 µM | [9] > 100 µM | [10] > 100 µM | [11] > 100 µM | [12] > 100 µM | [13] > 100 µM | [14] > 100 µM | [15] > 100 µM | [16] > 63.2 µM | [17] > 100 µM | [18] > 100 µM | [19] > 100 µM | [20] > 100 µM
